In patent US20190256929A1, “PHARMACODYNAMIC BIOMARKERS FOR PERSONALIZED CANCER CARE USING EPIGENETIC MODIFYING AGENTS” (ORYZON GENOMICS, S.A., priority 2016, published 2019):

Tested on: panel of 14 cell lines (small cell lung cancer, non-small-cell lung cancer, acute myelogenic leukemia, acute lymphoblastic T-cell leukemia)
Experiment: RNA-seq differential gene expression of PD markers in a panel of 14 cell lines
Format: cell-based, human
Details: 5 nM, 6 days
Method: A panel of 14 cell lines was treated with (trans)-N1-((1R,2S)-2-phenylcyclopropyl)cyclohexane-1,4-diamine (5 nM) or control vehicle for 6 days. The panel included eight small cell lung cancer cell lines (COLO 668, DMS 53, NCI-H146, NCI-H187, NCI-H446, NCI-H510A, NCI-H1417, SHP-77), two non-small-cell lung cancer cell lines (CAL-12T, NCI-H441), two acute myelogenic leukemia cell lines (KASUMI, OCI-AML2), and two acute lymphoblastic T-cell leukemia cell lines (JURKAT, SUP-T1).
Each cell line-treatment pair contained two to four biological replicates.
Expression data were obtained from whole transcriptomic RNA sequencing (RNA-seq) by Illumina, Inc. (San Diego, Calif.). The Illumina HiSeq machine generates raw base calls in reads of 50 or 100 bp length, which are subjected to several data analysis steps. The RNA-seq is conducted at 40 to 50 million reads per sample. This number provides relatively high sensitivity to detect low-expressed genes while allowing for cost-effective multiplexing of samples. RNA is prepared by standard kits and RNA libraries by polyA TruSeq Illumina kits. 100 ng of mRNA per cell line is used for each RNA-seq reaction. A number of quality control procedures are applied to the RNA-seq data for each sample. The Illumina HiSeq software reports the total number of clusters (DNA fragments) loaded in each lane, percent passing sequencing quality filters (which identifies errors due to overloading and sequencing chemistry), a phred quality score for each base of each sequence read, overall average phred scores for each sequencing cycle, and overall percent error (based on alignment to the reference genome). For each RNA-seq sample, the percentage of reads that contain mitochondrial and ribosomal RNA was calculated. The FASTQC package was used to provide additional QC metrics (base distribution, sequence duplication, overrepresented sequences, and enriched kmers) and a graphical summary. Raw reads were aligned against the human genome (hg19) using GSNAP and recommended options for RNASeq data. In addition to the genome sequence, GSNAP is given a database of human splice junctions and transcripts based on Ensembl v73. Resulting SAM files are then converted to sorted BAM files using Samtools. Gene expression values are calculated both as RPKM values following (Mortazavi A. et al. (2008) Nature Methods 5:621-628) and as read counts.
Differential gene expression analysis was performed using the DESeq2 package (Love M. I. et al. (2014) Genome Biology 15:550). Read counts from RNA-seq data were analyzed via a multi-factor generalized linear model of the negative binomial family, considering both treatment and the cell line type as factors that explain the changes in gene expression values.
The following filtering process was applied to identify genes that can serve as PD markers in surrogate tissues (skin or blood): • 1. […] The minimal expression level of the gene in normal blood and skin tissues was greater than one read per kilobase per million reads (RPKM, Mortazavi et al.), as obtained from the Genotype-Tissue Experssion (GTEx) project (The GTEx Consortium (2015) Science 348(6235):648-660). • 4. The minimal expression level of the gene in PBMC tissues was greater than 20 fragments per kilobase per million (FPKM; Trapnell C. et al. (2010) Nature Biotechnology 28:511-515) as obtained from the Ohmomo et al. study (Ohmomo H. et al. (2014) PLOS ONE 9(8):1-11). • 5. The gene is a target of LSD1, as determined by chromatin immunoprecipitation (ChIP) assay from the Adamo et al. study, or interacts with the LSD1 gene, as annotated by the BioGRID database (thebiogrid.org).
Additionally, we analyzed differential gene expression for a set of 35 genes which were previously identified as predictive biomarkers of response to LSD1 treatment.
Differentially expressed pathway analysis was done by the MetaBase R Library (Thompson Reuters).

[1] = RNA-seq, median across all cell lines, vs vehicle

N[C@H]1CC[C@H](N[C@@H]2C[C@H]2c2ccccc2)CC1 [RG6016, (trans)-N1-((1R,2S)-2-phenylcyclopropyl)cyclohexane-1,4-diamine]
ASCL1 differential gene expression after treatment (in words) (RNA-seq): very significantly down-regulated | GRP differential gene expression after treatment (in words) (RNA-seq): very significantly down-regulated | CNN2 Median Log2 FC [1]: 0.35 | DENND5A Median Log2 FC [1]: 0.32 | NOTCH1 Median Log2 FC [1]: 0.49 | VIM Median Log2 FC [1]: 0.46 | ZFP36L1 Median Log2 FC [1]: 0.27 | ASCL1 Median Log2 FC (RNA-seq, vs vehicle): −0.16 | GRP Median Log2 FC (RNA-seq, vs vehicle): −0.26 | development NOTCH signaling pathway, differentially expressed pathway analysis (MetaBase R Library, RNA-seq data): one of the most significantly differentially expressed pathway
